A melting point compilation (Tetko et al.; mined from patent text by program, amines drawn as free bases though some values may be those of a salt)

Row | SMILES | melting point [°C]
1 | Oc1cccc(-c2nn(C3CCCC3)c3c(Cl)cccc23)c1F | 150 to 151
2 | CCC(Oc1ccc(-n2nnc3cc(C(F)(F)F)ccc32)cc1)C(=O)O (stereo not given) | 122 to 125
3 | O=C(NCc1ccc(Cl)cc1)c1cnc2c(F)cc(CCCCCO)cc2c1O | 193 to 195
4 | O=C(O)C=C1SC(=Nc2ccc(Br)c(Br)c2)N(c2ccc(Br)c(Br)c2)C1=O | 235 to 237
5 | CN1C2CCC1CC(O)(c1ccccc1)C2 (stereo not given) | 157 to 159
6 | CCOC(=O)c1sc(NC(=O)c2cc(C(F)(F)F)cc(C(F)(F)F)c2)nc1C(F)(F)C(F)(F)F | 154 to 155
7 | CCCc1cccc2c(/C=C(\C)C(=O)O)cc(OC)c(OC(C)=O)c12 | 207 to 208
8 | C=C1CC2C(=CCC3(C)C2CC(C)C3(OC(C)=O)C(C)=O)C2(C)CCC(=O)C=C12 (stereo not given) | 197 to 198
9 | O=C(Nc1ccc(C(F)(F)F)cc1)Nc1ccc(S(=O)(=O)NCCN2CCOCC2)cc1 | 62 to 65
10 | Cc1cc(C(=O)OC(CC(C)C)C(=O)O)cc(C)n1 (racemic) | 95 to 96
11 | Cc1cc(C)c2ncc(NC(=O)c3cc(C(C)(C)C)c(O)c(C(C)(C)C)c3)c(-c3ccccc3Cl)c2c1 | 127 to 129
12 | CCCCCCCCCCCCCCCc1cc(=O)c2c(O)cc(O)cc2o1 | 108
13 | O=c1[nH]c2c(F)cccc2o1 | 131 to 133
14 | COCCN1CCc2cc(Nc3ncc(Cl)c(Nc4ccc(C(N)=O)cc4OC)n3)c(OC)cc2CC1 | 100 to 112
15 | C=CCCn1c2ccc(OC)cc2c2c3c(c(-c4ccccc4Cl)cc21)C(=O)N(Cc1ccc(OC)cc1OC)C3=O | 161 to 164
16 | Cc1cc(C)c2c(c1C)OC(C)(C)C2c1ccc(N(C)C)cc1 (stereo not given) | 124 to 125
17 | COc1ccc(C2=NN(c3ccc([N+](=O)[O-])cc3)C(=O)[C@H]3CC=CC[C@@H]23)cc1OC (relative stereo) | 179 to 182
18 | Cc1nc(N2CCc3ccccc3CC2)c(C#N)c(=O)n1CC(F)(F)F | 108 to 110
19 | C#CCC1CCC(=O)C(C(=O)c2ccc(S(C)(=O)=O)cc2[N+](=O)[O-])C1=O (stereo not given) | 65 to 70

Row | SMILES | melting point [°C]
20 | COc1cc(C2=C(C(C)(C)C)C(C)(C)CO2)cc2oc(-c3ccccc3)nc12 | 68.5 to 69
21 | CCOC(=O)c1c[nH]c2cc(-c3cc(C)nc(C)c3)c(F)cc2c1=O | > 300
22 | Nc1c(Cl)cc(Cn2nc(-c3ccc(Cl)c(Cl)c3)oc2=O)c(O)c1Cl | 200 to 202
23 | COc1cc2ncnc(N3CCN(C(=O)Nc4ccc(OC(C)C)cc4)CC3)c2cc1OC | 220 to 222
24 | OCc1cc(Br)cc(I)c1 | 110 to 112
25 | CC(C)(CN)Cc1ccc(-c2ccc(CC(C)(C)CN)cc2)cc1 | 97 to 99
26 | CC1(C)Oc2ccc(C(N)=S)cc2C(Oc2ccnc(O)c2)C1(C)O (stereo not given) | 142 to 144
27 | Cc1oc2cc(CO)ccc2c1C | 78 to 79
28 | O=C1c2ccc([N+](=O)[O-])cc2C(=O)N1c1ccc(C2(c3ccc(N4C(=O)c5ccc([N+](=O)[O-])cc5C4=O)cc3)c3ccccc3-c3ccccc32)cc1 | 360 to 363
29 | O=[N+]([O-])c1cccc(OCCn2ccnc2)c1 | 52.5 to 55.5
30 | CC(C)CCCC(NC(=O)OC(C)(C)C)c1nc(-c2cccc(Br)c2)c[nH]1 (stereo not given) | 134 to 136
31 | CCCc1cc(C(=O)OC)ccc1OCC(=O)CNc1cnn(C(C)C)c(=O)c1Cl | 133
32 | CC(C(=O)O)c1cc([N+](=O)[O-])ccc1F (stereo not given) | 88 to 90
33 | CC(C)n1c(=O)on(C(=O)n2oc(=O)n(C(C)C)c2=O)c1=O | 150
34 | O=[N+]([O-])C=C1CN=C(c2ccccc2)c2sccc2N1 | 160 to 163
35 | CCCCn1c(=O)c2[nH]ncc2n(CCC(C)C)c1=O | 77 to 79
36 | CCCC(=O)c1ccc(OCC(=O)OC)cc1 | 78 to 82
37 | C[Si](C)(C)c1ccc(O)c(C(=O)C=C(O)c2ccc(C(=O)O)cc2)c1 | 207 to 209
38 | Cc1oc(-c2ccco2)nc1CCc1ccc(CCCCC2OC(=O)NC2=O)cc1 (stereo not given) | 140 to 141

Row | SMILES | melting point [°C]
39 | CCCn1c(=O)c2c(nc(/C=C/c3ccc(OC)c(O)c3)n2C)n(CCC)c1=O | 200 to 204
40 | O=C(CS(=O)(=O)Cc1ccccc1)CS(=O)(=O)C(c1ccc(Cl)cc1)c1ccc(Cl)cc1 | 72 to 90
41 | N#CNC(=NCCN1CCC(C2(c3ccc(F)cc3)OCCO2)CC1)N1CCCCC1 | 155 to 157
42 | Cc1nc2ccnn2c2c1CCN2C(C)(C)C | 144 to 146
43 | Cc1nnc2n1-c1sc(CCc3ccc(CC(C)C)cc3)cc1C(c1ccccc1Cl)=NC2C (stereo not given) | 130 to 132
44 | COc1ccccc1NC(=O)NC1CC(N)(C(=O)O)C2C(C(=O)O)C12 (stereo not given) | > 250
45 | CN(CC(=O)C(Cc1c[nH]c2ccccc12)NC(=O)c1ccccc1)C(=O)N1CCCC1C(=O)O (stereo not given) | 102 to 128
46 | O=C1CN(C(=O)CN2CC(c3ccc(Cl)cc3)CC2=O)CCN1 (stereo not given) | 205 to 207
47 | NC(=O)c1[nH]c2cccnc2c1Sc1ccc(Cl)cc1Cl | 266
48 | CN1CC(CO)C=C2c3cccc4c3c(cn4C)CC21 (stereo not given) | 216 to 217
49 | COc1nc(C)c(Nc2nc(Cl)cn([C@H](COC(=O)Nc3cccc(C#N)c3)C3CC3)c2=O)cc1C | 206 to 207
50 | CCOC(=O)C1=C(C)Nc2ncnn2C1C (stereo not given) | 155 to 157
51 | O=C(/C=C/c1c[nH]cn1)Oc1ccc([N+](=O)[O-])cc1 | 220 to 222
52 | CN1CCN2CCCOC2(c2ccccc2)c2cc(Cl)ccc21 (stereo not given) | 142 to 144
53 | O=C(O)C1CCCN(CCC#Cc2ccccc2)C1 (stereo not given) | 150 to 151
54 | O=C1CCC(N2C(=O)c3cccc(CNC(=O)c4cc(Cl)cnc4Cl)c3C2=O)C(=O)N1 (stereo not given) | > 260
55 | CCCOc1ccc(SC(C)(C)C)cc1C(N)=O | 136 to 138
56 | COc1ccc(C(=O)Nc2c(Cl)cncc2Cl)cc1OC1CCCC1F (stereo not given) | 167 to 169
57 | CCCc1nc2c(N)nc(C)c(C)c2n1CCCC(C)=O | 148 to 150

More lines, now with the values ahead:

Row | melting point [°C] | SMILES
58 | 134 to 135 | O=C(O)C(=O)c1ccc(OCc2ccccc2)c(Cl)c1
59 | 71.5 to 72.1 | Nc1nc2ccccc2c2c1nc(CCCOc1ccccc1)n2CCCCNC(=O)N1CCOCC1
60 | 161 to 162 | O=C(O)c1cc(=O)c2cccc(/C=C/c3ccc(OCCCCc4ccc(F)cc4)cc3)c2o1
61 | 144 | COc1ccc(-c2cc(=O)n(Cc3c(Cl)cccc3Cl)nc2-c2ccc(OC)cc2)cc1
62 | 195 to 196 | CCCc1c([C@@H]2C[C@H]2c2ccccc2)oc2ccc(C(=O)O)cc2c1=O (relative stereo)
63 | 145 to 146 | Cc1cc2cnn(-c3ccccc3)c2nc1OCc1ncnn1C
64 | 213 to 215 | Cn1c(COc2ccc(CC3SC(=O)NC3=O)cc2)nc2ccc(Oc3ccc(NC(=O)c4cccnc4)cc3)cc21 (stereo not given)
65 | 210 | Cc1cccc(CC(=O)c2ccnc(-c3ccc(C(=O)NC4CCOCC4)cc3)c2)n1
66 | 63 to 65 | COc1cc(C(=O)Cl)ccc1OCc1ccccc1
67 | 267 to 268 | O=C(Nc1cc([N+](=O)[O-])c[nH]c1=O)c1ccccc1
68 | 187 | NNC(=O)NC(c1cccc(Cl)c1)c1ccnc2ccccc12 (stereo not given)
69 | 167 | O=C(Nc1ccc2ccc(Oc3ccccc3)nc2n1)c1ccco1
70 | 120 to 123 | OCC1OC(n2cnc3c(NCC(c4ccccc4)c4ccc(F)cc4)nc(Cl)nc32)C(O)C1O (stereo not given)
71 | 142 to 144 | O=S(=O)(Cl)c1ccc2c(c1)oc1ccccc12
72 | 136 to 138 | CC(Oc1ccc(CNC(=O)c2cccnc2Oc2ccc3c(c2)OCO3)c(F)c1)C(=O)O (stereo not given)
73 | 180 | CNc1cc(Oc2ccc3c(c2)OCCN3C(=O)Nc2cccc(C(F)(F)F)c2)ncn1
74 | 105 to 107 | CN1CCN(c2nn(C(=O)c3ccccc3)c3ccc(Cl)cc23)CC1
75 | 128 to 130 | CC(=O)Nc1ccc(CNC(=O)c2cccnc2Oc2ccc(F)cc2)cc1
76 | 270 to 274 | COc1ccc(-c2ccc(C(=O)O)cc2)cc1-c1cccc([N+](=O)[O-])c1

Row | melting point [°C] | SMILES
77 | 107 to 108 | O=C(Cc1ccc(Cl)cc1)OC(c1ccccc1)c1ccccc1
78 | 84 to 85 | COC(=O)C1(C)CC(C(=O)Nc2ccc(I)cc2)=NN1c1ccc(F)cc1 (stereo not given)
79 | 139 to 141 | CCN(CC)C(=O)c1cc(-c2ccccc2)ccc1-c1ccc(OC)cc1
80 | 114 to 116 | Cc1nc2c(c(-c3ccccc3)n1)CCN(c1ccnc([C@@H](C)O)n1)C2
81 | 170 to 173 | Cc1cn(Cc2ccccc2)c(=O)[nH]c1=O
82 | 130 to 131 | Cc1cc(N2CCN(Cc3ccccc3)C2=O)sc1C(=O)NCc1cccnc1
83 | 124 | O=C1N(c2cc(Cl)cc(Cl)c2)C(=O)C2(Cc3ccc(Br)cc3)C[C@@H](c3ccccc3)CN12 (stereo not given in full)
84 | 246 to 250 | O=C(CCc1ccccc1)c1cc2ccncc2[nH]1
85 | 245 to 247 | Nc1c(-c2ccc(-c3ccc(F)cc3)c(F)c2)nc2ccc(F)cc2c1C(=O)O
86 | 168 to 170 | COc1ccc(CCC(=O)Nc2nc3c(s2)CCN(CC=Cc2cccnc2)CC3)cc1
87 | 74.5 to 76 | COc1ccc(S(=O)(=O)N(Cc2cccnc2)[C@@H](C(=O)NOCc2ccccc2)C(C)C)cc1
88 | 109 to 110 | CCCCC(=O)N(CCOCc1ccccc1)Cc1ccc(-c2ccccc2-c2nnn[nH]2)cc1
89 | 122 to 123 | O=c1nc(-c2ccc(C(F)(F)F)cc2)sc2ccccc12
90 | 175 | O=C(NCc1cccnc1)c1ccc2n1Cc1ccccc1N(C(=O)/C=C/c1ccccc1)C2
91 | 102 to 103 | CC(=O)Oc1c(C(C)(C)C)cc(N(C)c2ccn(-c3ccccc3)n2)cc1C(C)(C)C
92 | 108 to 109 | Oc1ccc(C2(O)CCC3CN(Cc4ccccc4)CCC3C2)cc1 (stereo not given)
93 | 145 to 147 | COc1ccccc1Oc1cccc2c1NC(=O)C2
94 | 83 to 86 | CC(=O)Oc1ccc(C(=O)Nc2cccc(OCc3cncc4ccccc34)c2)cc1C(C)(C)C
95 | 141 to 148 | CN(Cc1cc2c(=O)c(C(=O)NCc3ccc(Cl)cc3)cn(C)c2o1)CC(CO)c1ccccc1 (stereo not given)
